The record followed here is US11572371B2, “BRD4 inhibitor” (HINOVA PHARMACEUTICALS INC., priority 2017, dated 2023).

Broadly, the IC50 is the concentration at which inhibition is half-maximal.

Experiment [1] has as its system CWR22RV1 cells. Put plainly: Inhibition of CWR22RV1 cell proliferation (CCK-8). It is filed as cell-based. The note with it: Homo sapiens, CWR22Rv1, 144 h; cultured for 6 days, CCK-8; read-out: IC50 on CWR22RV1. As for the experimental part: Test Example 2 Biological Determination of the Inhibitory Effect of the Compound on CWR22RV1 Cell Proliferation
Experimental Materials: • CWR22RV1 cell line (Cell bank of Chinese Academy of Sciences, TCHu100) • FBS (Gibco, Cat. No. 10099-141) • 0.01M PBS (Biosharp, Cat. No. 162262) • RIPM1640 (Hyclone, Cat. No. 308090.01) • Penicillin-Streptomycin (Hyclone, Cat. No. SV30010) • Cell counting kit-8(Signalway Antibody, Cat. No. CP002) • DMSO (Sigma, Cat. No. D5879) • Centrifuge Tube, 15 ml (Excell Bio, Cat. No. CS015-0001) • Cell Culture Dish, (Excell Bio, Cat. No. CS016-0128) • 96-well cell culture cluster (Corning, Cat. No. 3599)
(1) CWR22RV1 cells were subcultured with cell culture medium, and well-growth cells were inoculated in 96-well plates, with 80 μL per well. The number of cells in each well was 1500, and the plate was cultured overnight in a 37° C., 5% CO2 cell incubator.
(2) The drug was prepared as a 30 mM stock solution using dimethyl sulfoxide (DMSO). before use, the stock solution was diluted 3 times with DMSO, and then diluted by a 3 times gradient to obtain 9 concentration gradients. The compound at each concentration was further diluted 200 times with the culture solution (to ensure that the DMSO concentration in the culture system was 0.1%), and each concentration was repeated 2 wells. 20 μL of the diluted compound was added to the cell culture wells (with final concentrations of 10 μM, 3.3 μM, 1.1 μM . . . ), and gently shaked to mix. In addition, three negative control wells containing only cells and three blank control wells containing only culture medium (6 wells each containing 20 μL DMSO 200-fold diluted with culture medium) were set.
(1) After being cultured for 6 days, 10 μL CCK-8 was added to each well, and the cells were further cultured in a 5% CO2 cell incubator at 37° C. for 2.5 hours.
(2) The absorbance (OD value) was measured at 450 nm with a multifunctional microplate reader.
(3) The data were analyzed with the Dose-response-inhibition equation in the software GraphPad Prism6, and IC50 values were obtained.

The target in experiment [2] is BRD3(1, 2) (Homo sapiens (Human), UniProt Q15059). Kind of experiment: AlphaScreen binding assay, BRD3 (D1+D2). On the procedure: (§1) Homogeneous time-resolved fluorescence (HTRF) was used to detect the binding of the compound to BRD4 (D1 +D2) and BRDT (D1) proteins, and the AlphaScreen method was used to detect the binding of the compound to BRD2 (D1+D2) and BRD3 (D1+D2) proteins.
(§2) Compounds were screened in vitro, and each concentration of the compound was diluted to 10 different concentrations. Four proteins, BRD4 (D1 +D2), BRDT (D1), BRD2 (D1+D2) and BRD3 (D1+D2), were selected to determine their IC50 values (see Table 1).
(§3) The test compound was dissolved in dimethylsulfoxide (DMSO) and stored at a concentration of 10 mM.
(§4) 6. AlphaScreen detection step:
(§5) 1) Preparing 1-fold concentration of detection buffer
(§6) 1-fold concentration of detection buffer was prepared (modified HEPES buffer).
(§7) 2) Gradient dilution of compounds
(§8) The compound was transferred to the detection plate with an Echo autosampler for gradient dilution, so that the final concentration of dimethyl sulfoxide was 0.1%.
(§9) 3) Preparation of protein solution
(§10) The protein was dissolved in a 1-fold concentration of detection buffer.
(§11) 4) Preparation of substrate solution
(§12) The peptide was dissolved in 1-fold concentration of detection buffer to prepare a substrate solution.
(§13) 5) 5 μL protein solution was transferred to the assay plate, and 5 μL 1-fold concentration of detection buffer was placed in the negative control well.
(§14) 6) The plate was incubated at room temperature for 15 minutes.
(§15) 7) 5 μL substrate solution was added to each well to start the reaction.
(§16) 8) The plate was incubated at room temperature for 60 minutes.
(§17) 9) Acceptor and donor solutions were prepared in 1-fold concentration of assay buffer.
(§18) 15 μL acceptor and donor solution were added, respectively, and the plate was incubated at room temperature for 60 minutes without light.
(§19) 10) The end point was read in EnSpire and Alpha mode.
(§20) 11) The curve was fitted.
(§21) The experimental data were entered into an Excel file, and the equation (1) was used to get the inhibitory rate. Inh %=(Max−Signal)/(Max−Min)*100 Equation (1)
(§22) The resultant data were entered into GraphPad software, and the IC50 value was obtained using equation (2). Y=Bottom+(Top−Bottom)/(1+10^((LogIC50−X)*Hill Slope)) Equation (2)
(§23) Wherein, Y-axis is the inhibition rate, while X-axis is the compound concentration.

Experiment [3] concerns the target BRDT(D1) (Homo sapiens (Human), UniProt Q58F21). Put plainly: HTRF binding assay, BRDT (D1). On the procedure:
as §1, §2
BRDT(D1)(Active Motif, Cat.No.31450)
as §3
5. Homogeneous Time-Resolved Fluorescence Detection Steps:
1) All compounds were gradiently diluted on Echo plate according to the arrangement of the test plate. The final concentration of DMSO was 0.1%.
2) Compounds or DMSO was transferred to a 384-well assay plate by using Echo autosampler.
3) 2× concentration of protein and peptide mixture was added to the assay plate.
4) 2× concentration of the mixed detection solution was added to the assay plate and shaken for 30 seconds.
5) The plate was incubated at room temperature for 2 hours.
6) The fluorescence signal was read on Envision microplate reader (with excitation light wavelength at 340 nm and emission light wavelength at 615 nm and 665 nm).
as §21, §22, §23
A general note: In TR-FRET formats the signal depends on donor and acceptor labels being close together.

Experiment [4] has as its target BRD2(1, 2) (Homo sapiens (Human), UniProt P25440). Put plainly: AlphaScreen binding assay, BRD2 (D1+D2). On the procedure: as §1, §2, §3, §4, §5, §6, §7, §8, §9, §10, §11, §12, §13, §14, §15, §16, §17, §18, §19, §20, §21, §22, §23
In general terms: Bead proximity is the source of the signal in Alpha formats.

Experiment [5] deals with BRD4(1, 2) (Homo sapiens (Human), UniProt O60885). Kind of experiment: HTRF binding assay, BRD4 (D1+D2).
Excerpt: The experimental data were entered into an Excel file, and the equation (1) was used to get the inhibitory rate. Inh %=(Max−Signal)/(Max−Min)*100 Equation (1) […]

BRD3(1, 2), sequence (Q15059 29-417): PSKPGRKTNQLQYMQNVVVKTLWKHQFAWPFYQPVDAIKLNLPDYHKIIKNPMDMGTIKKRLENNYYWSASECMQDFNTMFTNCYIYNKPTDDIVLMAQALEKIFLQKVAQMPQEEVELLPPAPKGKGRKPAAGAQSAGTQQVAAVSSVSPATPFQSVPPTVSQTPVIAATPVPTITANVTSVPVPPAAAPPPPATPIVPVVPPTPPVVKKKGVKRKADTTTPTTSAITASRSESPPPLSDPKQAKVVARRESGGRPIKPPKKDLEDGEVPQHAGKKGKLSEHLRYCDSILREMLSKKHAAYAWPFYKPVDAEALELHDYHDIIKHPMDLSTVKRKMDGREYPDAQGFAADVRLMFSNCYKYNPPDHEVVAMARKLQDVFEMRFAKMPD
BRD2(1, 2), sequence (P25440 65-459): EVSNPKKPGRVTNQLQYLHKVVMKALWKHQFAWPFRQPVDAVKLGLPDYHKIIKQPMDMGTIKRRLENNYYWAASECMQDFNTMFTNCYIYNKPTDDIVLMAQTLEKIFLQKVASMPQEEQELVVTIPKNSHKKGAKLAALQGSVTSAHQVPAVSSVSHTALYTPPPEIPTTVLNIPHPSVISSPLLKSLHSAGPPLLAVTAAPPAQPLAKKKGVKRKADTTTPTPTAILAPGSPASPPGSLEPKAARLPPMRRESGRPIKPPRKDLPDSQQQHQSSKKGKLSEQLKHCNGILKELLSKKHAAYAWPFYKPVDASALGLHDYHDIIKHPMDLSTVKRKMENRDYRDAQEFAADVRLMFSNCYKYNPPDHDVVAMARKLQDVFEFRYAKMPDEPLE

For `CCOCc1nnc(C[C@@H]2N=C(c3ccc(Cl)cc3)c3c(sc(C)c3C)-n3c(C)nnc32)o1` [Compound 6, (S)-2-((4-(4-chlorophenyl)-2,3,9-trimethyl-6H-thieno[3,2-f][1,2,4]triazolo[4,3-a][1,4]diaza-6-yl)methyl)-5-(ethoxylmethyl)-1,3,4-oxodiazole], the IC50 came to 61 nM in experiment [1], 20 nM in experiment [2], 46 nM in experiment [3] and 15 nM in experiment [4].
The matching figures for `Cc1sc2c(c1C)C(c1ccc(Cl)cc1)=N[C@@H](Cc1nnc(C(C)C)o1)c1nnc(C)n1-2` [Compound 19, (S)-2-((4-(4-chlorophenyl)-2,3,9-trimethyl-6H-thieno[3,2-f][1,2,4]triazolo[4,3-a][1,4]diaza-6-yl)methyl)-5-isopropyl-1,3,4-oxodiazole]: 28 nM, 17 nM, 51 nM and 8.3 nM.
The matching figures for `Cc1sc2c(c1C)C(c1ccc(Cl)cc1)=N[C@@H](Cc1nnc(C3CC3)o1)c1nnc(C)n1-2` [Compound 20, (S)-2-((4-(4-chlorophenyl)-2,3,9-trimethyl-6H-thieno[3,2-f][1,2,4]triazolo[4,3-a][1,4]diaza-6-yl)methyl)-5-cyclopropyl-1,3,4-oxodiazole]: 37 nM, 20 nM, 49 nM and 10.1 nM.
`CCc1nnc(C[C@@H]2N=C(c3ccc(Cl)cc3)c3c(sc(C)c3C)-n3c(C)nnc32)o1` [Compound 22, (S)-2-((4-(4-chlorophenyl)-2,3,9-trimethyl-6H-thieno[3,2-f][1,2,4]triazolo[4,3-a][1,4]diaza-6-yl)methyl)-5-ethyl-1,3,4-oxodiazole]: the IC50 in experiment [1] turned out to be 47 nM; in experiment [5] it was 25 nM; in experiment [2], 21 nM; in experiment [3], 46 nM; in experiment [4], 10.8 nM.
